# What was measured:
# Alisertib = compound: COc1cc(Nc2ncc3c(n2)-c2ccc(Cl)cc2C(c2c(F)cccc2OC)=NC3)ccc1C(=O)O [Alisertib]; conditions: max 10 µM
# In short: (§1)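 Cancer cell lines were dosed for 72 hours (final DMSO typically 0.2%) after 24 hours at 37°C and 5% CO2 in 1536-well plates containing 7.5 μl DMEM/F12 or RPMI with 10% FBS. Viability came from CellTiter-Glo 2.0 luminescence, scaled between blank-well and DMSO-well means, and dose responses were fitted to a two-parameter logistic curve with a non-linear mixed effects model. The single-agent IC50 was obtained from this fit.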
# SN-38 = compound: CCc1c2c(nc3ccc(O)cc13)-c1cc3c(c(=O)n1C2)COC(=O)[C@]3(O)CC [SN-38]; conditions: max 0.3 µM
# In short: as §1
# Taselisib = compound: Cc1nc(-c2cn3c(n2)-c2ccc(-c4cnn(C(C)(C)C(N)=O)c4)cc2OCC3)n(C(C)C)n1 [Taselisib]; conditions: max 10 µM
# In short: as §1
# Olaparib = compound: O=C(c1cc(Cc2n[nH]c(=O)c3ccccc23)ccc1F)N1CCN(C(=O)C2CC2)CC1 [Olaparib]; conditions: max 10 µM
# In short: as §1
# Doxorubicin = compound: COc1cccc2c1C(=O)c1c(O)c3c(c(O)c1C2=O)C[C@@](O)(C(=O)CO)C[C@@H]3O[C@H]1C[C@H](N)[C@H](O)[C@H](C)O1 [Doxorubicin]; conditions: max 1 µM
# In short: as §1
# Savolitinib = compound: C[C@@H](c1ccc2nccn2c1)n1nnc2ncc(-c3cnn(C)c3)nc21 [Savolitinib]; conditions: max 1 µM
# In short: as §1
# AZD7648 = compound: Cc1cc2ncnn2cc1Nc1ncc2c(n1)n(C1CCOCC1)c(=O)n2C [AZD7648]; conditions: max 10 µM
# In short: as §1
# AZD0156 = compound: CN(C)CCCOc1ccc(-c2ccc3ncc4c(c3c2)n(C2CCOCC2)c(=O)n4C)cn1 [AZD0156]
# In short: as §1
# Dasatinib = compound: CC1=C(C(=CC=C1)Cl)NC(=O)C2=CN=C(S2)NC3=CC(=NC(=N3)C)N4CCN(CC4)CCO [Dasatinib]; conditions: max 2 µM
# In short: as §1
# Capivasertib = compound: C1CN(CCC1(C(=O)N[C@@H](CCO)C2=CC=C(C=C2)Cl)N)C3=NC=NC4=C3C=CN4 [Capivasertib]
# In short: as §1
# AZD5991 = compound: Cc1c2c(nn1C)CSCc1cc(n(C)n1)CSc1cc(c3ccccc3c1)OCCCc1c(C(=O)O)n(C)c3c-2c(Cl)ccc13 [AZD5991]; conditions: max 1 µM
# In short: as §1
# AZD6738 = compound: C[C@@H]1COCCN1C2=NC(=NC(=C2)C3(CC3)[S@](=N)(=O)C)C4=C5C=CNC5=NC=C4 [AZD6738]; conditions: max 10 µM
# In short: as §1
# AZD1775 = compound: C=CCn1c(=O)c2cnc(Nc3ccc(N4CCN(C)CC4)cc3)nc2n1-c1cccc(C(C)(C)O)n1 [AZD1775]
# In short: as §1
# Lapatinib = compound: CS(=O)(=O)CCNCc1ccc(-c2ccc3ncnc(Nc4ccc(OCc5cccc(F)c5)c(Cl)c4)c3c2)o1 [Lapatinib]; conditions: max 10 µM
# In short: as §1
# Palbociclib = compound: CC(=O)c1c(C)c2cnc(Nc3ccc(N4CCNCC4)cn3)nc2n(C2CCCC2)c1=O [Palbociclib]; conditions: max 10 µM
# In short: as §1
# AZD1390 = compound: CC(C)n1c(=O)n(C)c2cnc3cc(F)c(-c4ccc(OCCCN5CCCCC5)nc4)cc3c21 [AZD1390]; conditions: max 0.3 µM
# In short: as §1
# Prexasertib = compound: COc1cccc(OCCCN)c1-c1cc(Nc2cnc(C#N)cn2)n[nH]1 [Prexasertib]; conditions: max 1 µM
# In short: as §1
# Gefitinib = compound: COc1cc2ncnc(Nc3ccc(F)c(Cl)c3)c2cc1OCCCN1CCOCC1 [Gefitinib]; conditions: max 10 µM
# In short: as §1
# SG3199 = compound: CC1=CN2[C@@H](C1)C=NC3=CC(=C(C=C3C2=O)OC)OCCCCCOC4=C(C=C5C(=C4)N=C[C@@H]6CC(=CN6C5=O)C)OC [SG3199]; conditions: max 0.001 µM
# In short: as §1
# Trametinib = compound: CC(=O)Nc1cccc(-n2c(=O)n(C3CC3)c(=O)c3c(Nc4ccc(I)cc4F)n(C)c(=O)c(C)c32)c1 [Trametinib]; conditions: max 1 µM
# In short: as §1
# AZD4320 = compound: CN(CC[C@H](CSC1=CC=CC=C1)NC2=C(C=C(C=C2)S(=O)(=O)NC(=O)C3=CC=C(C=C3)N4CCC(CC4)[C@H](C5=CC=CC=C5C6=CC=C(C=C6)Cl)O)S(=O)(=O)C(F)(F)F)CCO [AZD4320]; conditions: max 1 µM
# In short: as §1
# AZD8186 = compound: C[C@@H](Nc1cc(F)cc(F)c1)c1cc(C(=O)N(C)C)cc2c(=O)cc(N3CCOCC3)oc12 [AZD8186]; conditions: max 3 µM
# In short: as §1
# Venetoclax = compound: CC1(C)CCC(CN2CCN(c3ccc(C(=O)NS(=O)(=O)c4ccc(NCC5CCOCC5)c([N+](=O)[O-])c4)c(Oc4cnc5[nH]ccc5c4)c3)CC2)=C(c2ccc(Cl)cc2)C1 [Venetoclax]; conditions: max 1 µM
# In short: as §1
# AZD5153 = compound: COc1nnc2ccc(N3CCC(c4ccc(OCCN5CCN(C)C(=O)[C@H]5C)cc4)CC3)nn12 [AZD5153]; conditions: max 1 µM
# In short: as §1
# Selumetinib = compound: Cn1cnc2c(F)c(Nc3ccc(Br)cc3Cl)c(C(=O)NOCCO)cc21 [Selumetinib]
# In short: as §1
# Crizotinib = compound: C[C@@H](Oc1cc(-c2cnn(C3CCNCC3)c2)cnc1N)c1c(Cl)ccc(F)c1Cl [Crizotinib]; conditions: max 10 µM
# In short: as §1
# AZD2811 = compound: CCN(CCO)CCCOc1ccc2c(Nc3cc(CC(=O)Nc4cccc(F)c4)[nH]n3)ncnc2c1 [AZD2811]; conditions: max 1 µM
# In short: as §1
Cell Line,"IC50, cell viability 72 h (Alisertib)","IC50, cell viability 72 h (SN-38)","IC50, cell viability 72 h (Taselisib)","IC50, cell viability 72 h (Olaparib)","IC50, cell viability 72 h (Doxorubicin)","IC50, cell viability 72 h (Savolitinib)","IC50, cell viability 72 h (AZD7648)","IC50, cell viability 72 h (AZD0156; max 3 µM)","IC50, cell viability 72 h (Dasatinib)","IC50, cell viability 72 h (Capivasertib; max 10 µM)","IC50, cell viability 72 h (AZD5991)","IC50, cell viability 72 h (AZD6738)","IC50, cell viability 72 h (AZD1775; max 3 µM)","IC50, cell viability 72 h (Lapatinib)","IC50, cell viability 72 h (Palbociclib)","IC50, cell viability 72 h (AZD1390)","IC50, cell viability 72 h (Prexasertib)","IC50, cell viability 72 h (Gefitinib)","IC50, cell viability 72 h (SG3199)","IC50, cell viability 72 h (Trametinib)","IC50, cell viability 72 h (AZD4320)","IC50, cell viability 72 h (AZD8186)","IC50, cell viability 72 h (Venetoclax)","IC50, cell viability 72 h (AZD5153)","IC50, cell viability 72 h (Selumetinib; max 10 µM)","IC50, cell viability 72 h (Crizotinib)","IC50, cell viability 72 h (AZD2811)","IC50, cell viability 72 h (AZD0156; max 1 µM)","IC50, cell viability 72 h (Capivasertib; max 3 µM)","IC50, cell viability 72 h (AZD1775; max 1 µM)","IC50, cell viability 72 h (Selumetinib; max 3 µM)"
IGROV-1 (Ovarian Carcinoma),1630 nM,177 nM,17.2 nM,> 10000 nM,924 nM,> 1000 nM,> 10000 nM,> 3000 nM,16.9 nM,438 nM,> 1000 nM,2900 nM,191 nM,764 nM,5560 nM,> 300 nM,54 nM,1550 nM,> 1 nM,19.6 nM,> 1000 nM,1320 nM,> 1000 nM,390 nM,1070 nM,9830 nM,> 1000 nM,,,,
BT-474 (Breast Carcinoma),> 10000 nM,> 300 nM,779 nM,> 10000 nM,> 1000 nM,> 1000 nM,> 10000 nM,> 3000 nM,> 2000 nM,> 10000 nM,> 1000 nM,> 10000 nM,> 3000 nM,2540 nM,> 10000 nM,> 300 nM,> 1000 nM,> 10000 nM,> 1 nM,> 1000 nM,> 1000 nM,> 3000 nM,> 1000 nM,> 1000 nM,> 10000 nM,> 10000 nM,> 1000 nM,,,,
RVH-421 (Melanoma),> 10000 nM,> 300 nM,> 10000 nM,> 10000 nM,> 1000 nM,,> 10000 nM,,,,> 1000 nM,> 10000 nM,,,,,> 1000 nM,,> 1 nM,> 1000 nM,> 1000 nM,3000 nM,> 1000 nM,,,,> 1000 nM,> 1000 nM,> 3000 nM,> 1000 nM,> 3000 nM
JURL-MK1 (Chronic Myelogenous Leukemia),297 nM,9.8 nM,> 10000 nM,> 10000 nM,115 nM,> 1000 nM,> 10000 nM,> 3000 nM,< 2 nM,> 10000 nM,778 nM,228 nM,85.1 nM,> 10000 nM,248 nM,> 300 nM,2.55 nM,> 10000 nM,> 1 nM,5.76 nM,322 nM,> 3000 nM,> 1000 nM,61.3 nM,339 nM,320 nM,> 1000 nM,,,,
